# Laboratory results taken from patent US12582652B2, “3-(ethoxydifluoromethyl)-6-(5-fluoro-6-(2,2,2-trifluoroethoxy)pyridin-3-yl)-[1,2,4]triazolo[4,3-a]pyrazine as an ion channel modulator” (Praxis Precision Medicines, Inc., priority 2022, dated 2026).
# “Also recorded” adds a separate entry of the source.
# What was measured:
# [1] = molecular target: hNaV1.1 (Homo sapiens, UniProt P35498); experiment: Persistent INa, patch clamp; format: cell-based
# Procedure: (§1) Late (persistent) current Block: The inhibition of ATX-II activated late current was measured using a 200 ms voltage step to 0 mV. Protocols used low stimulation rates (about 0.1 Hz) and negative potentials (−120 mV) to keep channels in closed (resting) states. Pharmacology was measured as the mean INa during the final 20 ms of the step to 0 mV and leak subtraction was not used.
# [2] = molecular target: hNaV1.2 (Homo sapiens, UniProt Q99250); experiment: Persistent INa, patch clamp; format: cell-based
# Procedure: as §1
# [3] = molecular target: hNaV1.5 (Homo sapiens, UniProt Q14524); experiment: Persistent INa, patch clamp; format: cell-based
# Procedure: as §1
# [4] = tested on: Scn8a^N1768D/+ transgenic mouse; experiment: Audiogenic induced seizures in Scn8a N1768D/+ mouse model; format: in vivo
# Procedure: Both male and female N1768D (D/+) mice, 8-12 weeks old, were used in the study. Compound 1 was administered orally (p.o.) at three doses (1 mg/kg, 3 mg/kg, 10 mg/kg) and also vehicle 1 hour prior to testing. The mice were randomized such that at the completion of the study each individual mouse had been evaluated at each test dose of Compound 1 and vehicle. A minimum of 3 days was allowed to elapse before retesting the mice. At the time of testing, mice were taken from their home cage and transferred to a clean test cage located in a separate testing room where they were allowed to acclimate for about 20 seconds before the onset of the acoustic stimulus. To induce audiogenic seizures, a 15 kHz signal was generated using Tone Generator software (NCH Software, Inc.), amplified using a Kinter K3118 stereo amplifier (Kinter USA), and converted to sound using a small 3-watt speaker lowered into the testing chamber. The stimulus was applied for 30 seconds unless a seizure was detected before the 30-second time point, in which case the audiogenic stimulus was terminated. Videos of the event were recorded using a laptop webcam. On the final day of testing, brains and plasma were collected from the D/+ mice immediately after audiogenic seizure testing to determine concentrations of Compound 1. A separate cohort of 8 age-matched WT mice were also included (n=2/dose level) to achieve a sample size of n=4 for PK for each dose level. Brain and plasma specimens were submitted for bioanalytical analysis.
# [5] = molecular target: T1, hNaV1.6 (Homo sapiens, UniProt Q9UQD0); experiment: Steady-state inactivation and activation curves (V1/2 shift); format: cell-based; conditions: for shift in V1/2 of activation curve: DMSO control −1.3 mV
# T1 construct: stably expressing either human NaV1.6 (NP_055006); expressed in transfected cells
# [6] = tested on: healthy participants; experiment: Phase 1 SAD/MAD/food effect trial: safety and tolerability; format: in vivo, human
# Procedure: This was a 3-part Phase 1 clinical trial in healthy participants aged 18-55 years. Parts A and B were randomized, placebo-controlled and evaluated the effects of single (2.5-150 mg) and multiple (30-120 mg, 14 days QD (every day)) ascending oral doses of Compound 1, respectively. Part C was an open-label, randomized, crossover design evaluating the PK of a single oral dose (90 mg) in fasted and fed states. In Parts A (n=64) and B (n=32), participants were randomized 3:1 to Compound 1 or placebo (n=8/cohort). In Part C (n=16), participants were randomized 1:1 to one of two treatment sequences receiving a single dose of 90 mg Compound 1 in the fed (following a high-fat/high calorie meal) or fasted (≥10 hours after the last, and 4 hours before the next, meal) state.
# [7] = tested on: CA1 pyramidal neurons; experiment: Intrinsic excitability (evoked action potentials) of CA1 pyramidal neurons, brain slice whole-cell current clamp; format: cell-based, mouse
# Procedure: Three hundred micrometer coronal hippocampal slices were cut on a vibratome (VT1200; Leica) for whole-cell patch-clamp experiments. Slices were incubated for a minimum of 1 hour in the incubation solution at room temperature before patching.
# Brain slices were transferred to a submerged recording chamber on an upright microscope (Slicescope Pro 1000; Scientifica) and were perfused (2 ml/min) with the extracellular artificial cerebral spinal fluid (aCSF) recording solution at 32° C.
# CA1 pyramidal neurons were identified visually in the stratum pyramidale of the CA1 region of the hippocampus, using infrared-oblique illumination microscopy with a 40× water-immersion objective (Olympus) using a camera (Dage IR-2000; Dage). […] Patch-clamp recordings were made using a micromanipulator (MPC-200; Sutter) and Axon Multiclamp 700B patch-clamp amplifier (MDS). Data were acquired using pClamp software (v10; MDS) using a sampling rate of 50 kHz and low pass Bessel filtered at 10 kHz (Digidata 1550b; Axon).
# Studies were performed using whole-cell current clamp recording mode. […] Once the whole-cell configuration was obtained for 2 minutes, a holding current was injected to maintain a membrane potential of approximately −70 mV. Current steps (injected current of between −60 to 340 pA in 20 pA steps, 400 ms duration) (FIG. 1B)) were applied in current clamp mode. The amplitude of current injections was relative to the holding current. A test pulse (−5 pA amplitude, 50 ms duration) was applied 650 ms after the termination of the main current step. The inter sweep interval was 5 seconds (0.2 Hz). To be included in the study, a cell had to have an access resistance of less than 20 M2 and a holding current of less than −200 pA. Once baseline action potential firing was determined in the presence of the extracellular aCSF recording solution (baseline), Compound 1 (300 nM or 3 μM) was washed onto the slice for 5 minutes before repeating the action potential generating protocol (FIG. 1B).
# Data were analyzed using Axograph X software. Individual action potentials were identified and counted using a +50 mV amplitude threshold relative to pre-event baseline. The frequencies of action potentials generated were plotted for each of the current injections to create an input-frequency relationship for each cell. Action potential amplitudes were determined relative to the pre-event baseline at the +200 pA current injection step for each cell. Once an action potential count had less than three cells contributing to the averaged amplitude, it was excluded from analysis. For statistical comparisons between groups, the total number of action potentials fired per cell was calculated. Statistical analysis was performed using GraphPad Prism software (v8). […]
# T1 sequence (Q9UQD0 whole entry): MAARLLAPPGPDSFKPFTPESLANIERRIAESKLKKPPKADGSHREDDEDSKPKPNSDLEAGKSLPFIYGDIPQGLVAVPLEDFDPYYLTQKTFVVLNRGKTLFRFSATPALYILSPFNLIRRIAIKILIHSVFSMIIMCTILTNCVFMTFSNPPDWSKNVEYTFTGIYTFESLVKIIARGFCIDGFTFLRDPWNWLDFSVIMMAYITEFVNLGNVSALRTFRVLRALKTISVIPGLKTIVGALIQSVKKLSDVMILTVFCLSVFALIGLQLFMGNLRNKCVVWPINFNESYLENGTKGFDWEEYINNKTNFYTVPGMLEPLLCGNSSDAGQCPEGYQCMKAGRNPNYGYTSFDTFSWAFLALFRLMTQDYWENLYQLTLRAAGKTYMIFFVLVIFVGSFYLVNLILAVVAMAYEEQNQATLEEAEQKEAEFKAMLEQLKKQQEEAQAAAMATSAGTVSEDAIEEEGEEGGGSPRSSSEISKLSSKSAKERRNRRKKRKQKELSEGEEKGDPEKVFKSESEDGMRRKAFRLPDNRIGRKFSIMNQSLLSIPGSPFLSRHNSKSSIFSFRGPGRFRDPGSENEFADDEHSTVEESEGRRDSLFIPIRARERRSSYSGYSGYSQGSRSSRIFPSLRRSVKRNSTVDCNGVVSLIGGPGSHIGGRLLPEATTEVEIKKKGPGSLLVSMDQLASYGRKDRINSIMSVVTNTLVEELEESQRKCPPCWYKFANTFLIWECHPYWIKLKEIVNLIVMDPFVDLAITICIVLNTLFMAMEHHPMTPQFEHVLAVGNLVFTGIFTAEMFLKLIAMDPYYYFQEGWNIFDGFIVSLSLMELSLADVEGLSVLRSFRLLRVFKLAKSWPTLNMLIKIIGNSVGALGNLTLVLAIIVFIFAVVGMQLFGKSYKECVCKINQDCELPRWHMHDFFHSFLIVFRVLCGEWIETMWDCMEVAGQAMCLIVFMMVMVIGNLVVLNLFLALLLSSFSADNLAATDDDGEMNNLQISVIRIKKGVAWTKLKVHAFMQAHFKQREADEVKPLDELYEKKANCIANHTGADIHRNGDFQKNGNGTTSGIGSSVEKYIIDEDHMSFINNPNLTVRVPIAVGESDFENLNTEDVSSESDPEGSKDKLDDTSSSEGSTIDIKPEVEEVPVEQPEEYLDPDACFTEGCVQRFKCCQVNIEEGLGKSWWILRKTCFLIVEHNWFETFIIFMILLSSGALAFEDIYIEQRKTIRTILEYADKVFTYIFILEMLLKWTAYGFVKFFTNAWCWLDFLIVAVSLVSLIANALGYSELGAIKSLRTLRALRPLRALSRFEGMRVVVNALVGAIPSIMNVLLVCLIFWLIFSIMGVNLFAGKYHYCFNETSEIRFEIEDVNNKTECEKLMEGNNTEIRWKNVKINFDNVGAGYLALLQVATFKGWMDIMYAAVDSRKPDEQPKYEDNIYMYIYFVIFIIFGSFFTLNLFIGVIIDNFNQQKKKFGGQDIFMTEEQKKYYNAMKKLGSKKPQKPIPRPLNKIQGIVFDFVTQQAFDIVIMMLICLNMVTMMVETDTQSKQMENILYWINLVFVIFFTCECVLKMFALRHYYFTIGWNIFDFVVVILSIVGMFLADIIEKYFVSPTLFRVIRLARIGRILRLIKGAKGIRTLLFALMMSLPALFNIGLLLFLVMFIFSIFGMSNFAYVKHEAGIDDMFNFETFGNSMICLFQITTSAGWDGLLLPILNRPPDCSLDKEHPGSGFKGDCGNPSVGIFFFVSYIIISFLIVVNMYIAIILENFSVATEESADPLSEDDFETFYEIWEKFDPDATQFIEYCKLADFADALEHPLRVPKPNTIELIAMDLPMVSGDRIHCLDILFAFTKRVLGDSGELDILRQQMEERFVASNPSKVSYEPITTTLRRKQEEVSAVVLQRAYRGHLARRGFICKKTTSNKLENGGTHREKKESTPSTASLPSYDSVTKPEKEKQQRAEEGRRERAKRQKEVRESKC
# Chain of hNaV1.2 (Q99250 whole entry): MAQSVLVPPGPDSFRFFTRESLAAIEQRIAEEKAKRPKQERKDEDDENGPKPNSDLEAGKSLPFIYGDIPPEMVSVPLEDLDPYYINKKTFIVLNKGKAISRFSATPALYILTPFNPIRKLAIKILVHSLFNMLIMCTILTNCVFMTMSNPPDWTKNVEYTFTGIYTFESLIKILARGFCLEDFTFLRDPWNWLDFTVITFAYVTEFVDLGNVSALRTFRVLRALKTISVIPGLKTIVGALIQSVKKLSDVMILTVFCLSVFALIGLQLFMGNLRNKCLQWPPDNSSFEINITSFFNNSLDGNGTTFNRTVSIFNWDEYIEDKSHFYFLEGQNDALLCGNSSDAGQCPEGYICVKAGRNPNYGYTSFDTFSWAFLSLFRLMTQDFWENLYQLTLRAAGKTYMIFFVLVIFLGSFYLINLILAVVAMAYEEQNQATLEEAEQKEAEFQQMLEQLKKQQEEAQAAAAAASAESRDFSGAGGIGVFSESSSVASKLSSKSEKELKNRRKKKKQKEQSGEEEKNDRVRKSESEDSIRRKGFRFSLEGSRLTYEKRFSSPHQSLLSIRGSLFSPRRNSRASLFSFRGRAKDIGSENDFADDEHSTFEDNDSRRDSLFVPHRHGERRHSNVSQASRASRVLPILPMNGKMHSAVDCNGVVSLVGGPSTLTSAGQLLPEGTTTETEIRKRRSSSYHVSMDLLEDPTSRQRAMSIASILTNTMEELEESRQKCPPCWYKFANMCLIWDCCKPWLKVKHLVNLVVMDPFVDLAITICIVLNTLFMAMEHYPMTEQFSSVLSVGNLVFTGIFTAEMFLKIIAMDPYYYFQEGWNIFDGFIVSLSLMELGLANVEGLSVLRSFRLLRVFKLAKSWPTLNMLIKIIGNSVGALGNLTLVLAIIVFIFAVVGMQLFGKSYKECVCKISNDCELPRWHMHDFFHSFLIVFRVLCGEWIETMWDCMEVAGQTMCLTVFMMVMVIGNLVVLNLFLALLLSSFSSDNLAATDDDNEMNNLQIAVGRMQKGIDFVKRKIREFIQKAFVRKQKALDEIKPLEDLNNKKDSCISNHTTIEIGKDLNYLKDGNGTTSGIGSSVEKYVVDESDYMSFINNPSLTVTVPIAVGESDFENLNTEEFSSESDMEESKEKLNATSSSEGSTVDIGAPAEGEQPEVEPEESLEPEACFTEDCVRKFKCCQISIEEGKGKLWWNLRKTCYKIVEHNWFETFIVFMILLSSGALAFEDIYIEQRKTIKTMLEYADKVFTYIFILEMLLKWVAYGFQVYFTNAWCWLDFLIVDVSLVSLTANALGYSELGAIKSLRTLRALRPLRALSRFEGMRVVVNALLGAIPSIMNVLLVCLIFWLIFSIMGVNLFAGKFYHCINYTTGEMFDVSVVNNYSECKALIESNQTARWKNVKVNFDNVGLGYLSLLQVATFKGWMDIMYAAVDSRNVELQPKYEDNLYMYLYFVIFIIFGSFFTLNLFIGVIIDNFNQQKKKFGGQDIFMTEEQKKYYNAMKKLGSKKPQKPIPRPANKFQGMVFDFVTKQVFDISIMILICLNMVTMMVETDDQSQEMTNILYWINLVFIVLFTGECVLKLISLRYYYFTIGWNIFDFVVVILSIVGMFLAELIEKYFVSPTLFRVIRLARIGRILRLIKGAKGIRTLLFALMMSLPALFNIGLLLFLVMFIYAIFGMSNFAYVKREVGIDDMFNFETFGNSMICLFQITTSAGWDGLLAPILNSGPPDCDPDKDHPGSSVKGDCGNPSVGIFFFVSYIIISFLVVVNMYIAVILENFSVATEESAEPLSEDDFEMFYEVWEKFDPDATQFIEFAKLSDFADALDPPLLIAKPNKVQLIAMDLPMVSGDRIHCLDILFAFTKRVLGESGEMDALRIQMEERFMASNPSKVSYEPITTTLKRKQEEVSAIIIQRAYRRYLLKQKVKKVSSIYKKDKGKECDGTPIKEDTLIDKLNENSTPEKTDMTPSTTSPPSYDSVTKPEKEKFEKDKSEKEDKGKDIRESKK
compound,measurement,setting,value
"CCOC(F)(F)c1nnc2cnc(-c3cnc(OCC(F)(F)F)c(F)c3)cn12 [Compound 1, 3-(ethoxydifluoromethyl)-6-(5-fluoro-6-(2,2,2-trifluoroethoxy)pyridin-3-yl)-[1,2,4]triazolo[4,3-a]pyrazine]",IC50,[1],109 nM
same,IC50,[2],172 nM
same,IC50,[3],172 nM
same,protection from audiogenic seizures,[4]; 10 mg/kg p.o.,complete protection
same,inhibition of audiogenic seizures,"[4]; 1, 3, 10 mg/kg p.o., 1 hour prior to testing",dose dependent inhibition
same,protection from seizures (FIG. 14B),[4]; Scn8a N1768D DEE mouse model,completely block seizures
same,shift in V1/2 of activation curve,[5]; 0.3 μmol/L,−2.3 mV
same,shift in V1/2 of activation curve,[5]; 1 μmol/L,−2.7 mV
same,shift in V1/2 of steady-state inactivation curve,"[5]; 1 μmol/L, DMSO control −2.6 mV",−11.7 mV
same,TEAEs that were mild,[6]; healthy participants,> 92%
same,"safety findings in vital signs, clinical laboratory results, physical exams, ECGs, C-SSRS",[6]; healthy participants,no clinically significant safety findings
same,participants experiencing typical NaV blocker events,[6]; more frequent at 120 mg and 150 mg,34%
same,tolerability in healthy participants,"[6]; single doses up to 150 mg, up to 120 mg QD 14 days, 90 mg fed and fasted",well-tolerated; also recorded: well tolerated
same,"intrinsic excitability, number of evoked APs",[7]; 0.3 μmol/L (peak INa VDB IC50),significantly reduced
same,AP amplitude,"[7]; +200 pA current injection, 0.3 μmol/L Compound 1, 45 μmol/L CBZ",without compromising
same,number of action potentials generated / action potential firing frequency vs baseline,"[7]; Compound 1 at 0.3 and 3 μM, wildtype mice",significantly reduced
